Laboratory results from patent US20030138864A1, “Method for identifying an enzyme to design anti-cancer compounds” (priority 2001, published 2003).
Counter-ions that a name gives are not always drawn. Like-named read-outs stand apart in the source and are kept apart here.

Tests used:
Assay type in all cases: cell-based
[1] = system: HCT116/S5: HCT116 transfected with the human microsomal dipeptidase cDNA; assay: Growth inhibition (cytotoxicity, WST-8) of HCT116/S5 cells expressing a high level of microsomal dipeptidase
Protocol: (§1) The activation of the compounds is mediated by microsomal dipeptidase. The inhibitory activities of the compounds is determined against growth of the cells expressing a low level of microsomal dipeptidase, those expressing a high level of microsomal dipeptidase, and granulocyte progenitors that are expanded ex vivo. The human colon cancer cell line, HCT116 (American Type Culture Collection No. CCL-247), and granulocyte progenitors are used as the cells expressing only a low level of microsomal dipeptidase. A stable transfectant, HCT116/S5, into which the human microsomal dipeptidase cDNA (herafter called MDP) connected to the CMV promoter was transfected, is used as the cells expressing a high level of microsomal dipeptidase. The dipeptidase cDNA (Satoh et al. Biotechnol. Prog. 10 (2), 134-140 (1994)) and other references) and the cloning procedures as mentioned are known in the art. HCT116, HCT116/S5, and granulocyte porogenitors are cultured in the absence and presence of the drugs. […] The IC50 values are determined and compared among HCT116, HCT116/S5, and granulocyte porogenitors. Although time duration of the exposure of the cells to the drugs varies depending on the cells and drugs, it can be 24 hr, 96 or 168 hr.
Transfection of the DNA was carried out by using TransIT-LT2 (PanVera, Madison, USA, Calatog No. MIR2320) according to the manufacturer's instruction. The resulting transfectants were cultivated in MaCoy5A medium (Sigma, St Louis, USA, Catalog No. M8403) supplemented with 10% (v/v) fetal bovine serum and 1 mg/ml of geneticin disulfate (Wako, Osaka, Japan, Catalog No. 535-24624). The cells that grew in the presence of 1 mg/ml G418 were collected and cultivated in MaCoy5A medium.
(§2) By using 96-multi well plates, approximately 2×10^3 cells per well of the HCT116 bearing pRC/CMV and HCT116S5 carrying pRC/CMV-MDP were cultured in 200 μl of McCoy5A medium supplemented with 10% FBS in the presence or absence of the indicated concentrations of the drugs at 37° C. under 5% CO2 in humidified air. The cells were exposed to drugs for 24 hr (taxol, camptothecins and their prodrugs) or 96 hr (DMDC and its compounds). When the drug exposure time to the cells was 24 hr, culture medium containing drugs were removed, and the cells were washed and suspended in the fresh medium without drugs and further cultured at 37° C. under 5% CO2 in humidified air for the indicated days. Then, 10 μl of WST-8 (Cell Counting Kit-8, Wako, Osaka, Japan, Catalog No.343-07623) were added to the cultures, and the cells were further incubated at 37° C. for 1 or 2 hr. Cell growth inhibition was calculated as IC50 values according to optical densities at 450 nm and at 655 nm. To examine the effects of drugs on granulocyte progenitors, the granulocyte progenitors, which were expanded on a monolayer of MS-5 for 7 days, were collected and washed with RPMI1640 medium. Approximately 5000 cells were suspended in 200 μl of RPMI medium supplemented with 10% FBS and 50 ng/ml of G-CSF in the presence or absence of drugs and cultured in the presence of drugs for 24 hr (taxol, camptothecins and their prodrugs) or 7 days (DMDC and its prodrug) at 37° C. under 5% CO2 in humidified air. When the exposure time of drugs to the cells was 24 hr, the drugs were removed at 24 hr after addition of drugs by washing the cells with the above medium, and the cells were further cultured for 6 days in the same medium without drugs. Therafter, 20 μl of WST-1 (Roche Diagnostics, Mannheim, Germany, Catalog No. 1644807) were added to the cultures, and the cells were further incubated at 37° C. for 6 hr. Cell growth inhibition was calculated as IC50 values according to optical densities at 450 nm and at 655 nm.

[2] = system: HCT116: human colon cancer cell line; assay: Growth inhibition (cytotoxicity, WST-8) of HCT116 cells expressing only a low level of microsomal dipeptidase
Protocol: The activation of the compounds is mediated by microsomal dipeptidase. The inhibitory activities of the compounds is determined against growth of the cells expressing a low level of microsomal dipeptidase, those expressing a high level of microsomal dipeptidase, and granulocyte progenitors that are expanded ex vivo. […] A stable transfectant, HCT116/S5, into which the human microsomal dipeptidase cDNA (herafter called MDP) connected to the CMV promoter was transfected, is used as the cells expressing a high level of microsomal dipeptidase. […] HCT116, HCT116/S5, and granulocyte porogenitors are cultured in the absence and presence of the drugs. […] The IC50 values are determined and compared among HCT116, HCT116/S5, and granulocyte porogenitors.
Transfection of the DNA was carried out by using TransIT-LT2 (PanVera, Madison, USA, Calatog No. MIR2320) according to the manufacturer's instruction. […] The cells that grew in the presence of 1 mg/ml G418 were collected and cultivated in MaCoy5A medium.
as §2, with “Then, 10 μl of WST-8 (Cell Counting Kit-8, Wako, Osaka, Japan, Catalog No.343-07623) were added to the cultures, and the cells were further incubated at 37° C. for 1 or 2 hr. Cell growth inhibition was calculated as IC50 values according to optical densities at 450 nm and at 655 nm.” left out, “drugs.” for “drugs. Therafter, 20 μl of WST-1 (Roche Diagnostics, Mannheim, Germany, Catalog No. 1644807) were added to the cultures, and the cells were further incubated at 37° C. for 6 hr. Cell growth inhibition was calculated as IC50 values according to optical densities at 450 nm and at 655 nm.”

[3] = system: CFU-GM: human bematopoietic progenitor cells; assay: Growth inhibition (cytotoxicity, WST-1) of granulocyte progenitors expanded ex vivo (CFU-GM)
Protocol: as §1
CD34-positive mononuclear cells derived from the human umbilical cord blood and bone marrow (Veritas Co, Tokyo, Japan, Catalog No.CB009F, ABM019F) were cultured on a confluent monolayer of MS5 (Itoh, K., et al. Reproducible establishment of hematopoietic supportive stromal cells from murine bone marrow. Exp. Hematol. 17, 145-153 (1989)). Mouse stromal cell lines in alpha MEM medium (Life Technologies, Gaithersburg, USA, Catalog No.12571-0063) supplemented with 10% (v/v) horse serum (HS) (Stem Cell Technologies, Vancouver, Canada, Catalog No. 06750), 10% (v/v) fetal bovine serum (FBS) (Stem Cell Technologies, Vancouver, Canada, Catalog No.06450), 50 ng/ml Flt3 ligand (PeproTec EC., London, UK., Catalog No. 300-19), 100 ng/ml SCF (PeproTech EC, London, UK., Catalog No. 300-07), and 50 ng/ml TPO (PeproTech EC, London, England, Catalog No. 300-18) at 37° C. under 5% CO2 in humidified air. Floating hematopoietic cells were collected and stained by monoclonal antibodies against PerCP-anti-CD34 (BD pharMingen, San Diego, USA, Catalog No.340430), PE-anti-CD13 (BD pharMingen, San Diego, USA, Catalog No. 30525X) and FlTC-anti-15(BD pharMingen, SanDiego, USA, Catalog No. PM30525X). Five microlitter of each antibody was added to a […] of cell suspension and incubated at 4° C. for 25 min. After washing with PBS containing 10% (v/v) FCS, the expression of CD antigens were detected by using FACSCalibur (Becton Dickinson, Franklin Lakes, N.J., USA) according to the FACSCalibur Traing mannual (FACStation ver1.1. Becton Dickinson, Franklin Lakes, N.J., USA.). […]

[4] = drug exposure time, 24 hr, then drug removed and cells cultured further, read-out: Cytotoxicity (IC50 in nM) HCT116
[5] = drug exposure time, 24 hr, then drug removed and cells cultured further, read-out: Cytotoxicity (IC50 in nM) HCT116/S5
[6] = drug exposure time, 24 hr, then cultured for 6 days without drugs, read-out: Cytotoxicity (IC50 in nM) CFU-GM

C=C1C(n2ccc(NC(=O)CC[C@@H](NC(=O)[C@@H](N)Cc3ccc(-c4ccccc4)cc3)C(=O)O)nc2=O)O[C@H](CO)[C@H]1O (stereo partly shown) [Example 16]
IC50 ([1]; drug exposure time, 96 hr, read-out: Cytotoxicity (IC50 in nM) HCT116/S5): 0.23 nM
IC50 ([2]; drug exposure time, 96 hr, read-out: Cytotoxicity (IC50 in nM) HCT116): 1.7 nM
IC50 ([3]; drug exposure time, 168 hr (7 days), read-out: Cytotoxicity (IC50 in nM) CFU-GM): 2.8 nM

C=C1C(n2ccc(NC(=O)CC[C@@H](NC(=O)[C@@H](N)Cc3ccc4ccccc4c3)C(=O)O)nc2=O)O[C@H](CO)[C@H]1O (stereo partly drawn) [Example 17, (2R)-((2S)-Amino-3-naphthalen-2-ylpropionylamino)-4-[1-((4S)-hydroxy-(5R)-hydroxymethyl-3-methylenetetrahydrofuran-2-yl)-2-oxo-1,2-dihydropyrimidin-4-ylcarbamoyl]butyric acid]
IC50 [1]: 0.098 nM
IC50 [2]: 0.99 nM
IC50 [3]: 1.1 nM

CC[C@@]1(OC(=O)CC[C@@H](NC(=O)[C@H](N)Cc2c[nH]c3ccccc23)C(=O)O)C(=O)OCc2c1cc1n(c2=O)Cc2cc3ccccc3nc2-1 [Example 31, 20-O—[(R)-tryptophyl-γ-(R)-glutamyl]-20(S)-camptothecin hydrochloride]
IC50 [2, 4]: 3 nM
IC50 [3]: 18200 nM

CCc1c2c(nc3ccc(O)cc13)-c1cc3c(c(=O)n1C2)COC(=O)[C@@]3(CC)OC(=O)CC[C@@H](NC(=O)[C@@H](N)Cc1ccccc1)C(=O)O [Example 39, 7-ethyl-10-hydroxy-20-O—[(S)-phenylalanyl-γ-(R)-glutamyl]-20(S)-camptothecin hydrochloride]
IC50 [1, 5]: 2.8 nM
IC50 [2, 4]: 23 nM
IC50 [3]: 20 nM

CCCCCN1C=Nc2cccc3nc4c(c1c23)Cn1c-4cc2c(c1=O)COC(=O)[C@@]2(CC)OC(=O)CC[C@H](NC(=O)[C@@H](N)Cc1c[nH]c2ccccc12)C(=O)O [Example 49-1, (9S)-9-ethyl-9-[(L)-tryptophyl-(L)-γ-glutamyloxy]-1-pentyl-1H,12H-pyrano[3″,4″:6′,7′]indolizino[1′,2′:6,5]pyrido[4,3,2-de]quinazoline-10,13(9H,15H)-dione hydrochloride]
IC50 [1, 5]: 3.3 nM
IC50 [2, 4]: 33 nM
IC50 [3, 6]: 61 nM

CCCCCN1C=Nc2c3c(nc4cccc1c24)-c1cc2c(c(=O)n1C3)COC(=O)[C@@]2(CC)OC(=O)CC[C@@H](NC(=O)[C@@H](N)CC1CCCCC1)C(=O)O [Example 49-2, (9S)-9-ethyl-9-[(L)-cyclohexylalanyl-(D)-γ-glutamyloxy]-1-pentyl-1H,12H-pyrano[3″,4″:6′,7′]indolizino[1′,2′:6,5]pyrido[4,3,2-de]quinazoline-10,13(9H,15H)-dione hydrochloride]
IC50 [1, 5]: 2.6 nM
IC50 [2, 4]: 18 nM
IC50 [3, 6]: 31 nM

CCCCCN1C=Nc2cccc3nc4c(c1c23)Cn1c-4cc2c(c1=O)COC(=O)[C@@]2(CC)OC(=O)CC[C@@H](NC(=O)[C@@H](N)Cc1ccccc1)C(=O)O [Example 49-3, (9S)-9-ethyl-9-[(L)-phenylalanyl-(D)-γ-glutamyloxy]-1-pentyl-1H,12H-pyrano[3″,4″:6′,7′]-indolizino[1′,2′:6,5]pyrido[4,3,2-de]quinazoline-10,13(9H,15H)-dione hydrochloride]
IC50 [1, 5]: 2.9 nM
IC50 [2, 4]: > 50 nM
IC50 [3, 6]: 250 nM

CCCCCN1C=Nc2cccc3nc4c(c1c23)Cn1c-4cc2c(c1=O)COC(=O)[C@@]2(CC)OC(=O)CC[C@@H](NC(=O)[C@@H](N)CC(C)C)C(=O)O [Example 49-4, (9S)-9-ethyl-9-[(L)-leucyl-(D)-γ-glutamyloxy]-1-pentyl-1H,12H-pyrano[3″,4″:6′,7′]-indolizino[1′,2′:6,5]pyrido[4,3,2-de]quinazoline-10,13(9H,15H)-dione hydrochloride]
IC50 [1, 5]: 2.1 nM
IC50 [2, 4]: 15 nM

CCCCCN1C=Nc2c3c(nc4cccc1c24)-c1cc2c(c(=O)n1C3)COC(=O)[C@@]2(CC)OC(=O)C[C@@H](NC(=O)[C@@H](N)CC1CCCCC1)C(=O)O [Example 49-11, (9S)-9-ethyl-9-[(L)-cyclohexylalanyl-(D)-β-aspartyloxy]-1-pentyl-1H,12H-pyrano[3″,4″:6′,7′]indolizino[1′,2′:6,5]pyrido[4,3,2-de]quinazoline-10,13(9H,15H)-dione hydrochloride]
IC50 [1, 5]: 13 nM
IC50 [2, 4]: > 50 nM
IC50 [3, 6]: 120 nM

CCc1c2c(nc3ccc(O)cc13)-c1cc3c(c(=O)n1C2)COC(=O)[C@]3(O)CC [SN 38, reference compound]
IC50 [1, 5]: 2.2 nM
IC50 [2, 4]: 3.7 nM
IC50 [3, 6]: 1.8 nM
